Data from paper PMC7997032, “Organic synthesis and anti-influenza A virus activity of cyclobakuchiols A, B, C, and D” (PLoS ONE, 2021).
“And” between values parts separate entries of the source, which are not always exact repeats. Identical values can stand only once.

Test system: myxovirus-resistant protein 1 (Mx1)
Experiment: RT-qPCR of Mx1 mRNA in MDCK cells with or without A/PR/8/34 virus
Format: cell-based, canine
Conditions: for MDCK Mx1 mRNA, ave / MDCK Mx1 mRNA, individual replicates: 12.5uM, relative to virus - DMSO; for MDCK Mx1 mRNA, ave: ave of #1-3 exp; for MDCK Mx1 mRNA, individual replicates: replicates 1-3 of #1, #2, #3 exp

Structure (SMILES) | MDCK Mx1 mRNA, ave (virus +) | MDCK Mx1 mRNA, ave (virus -) | mRNA level of Mx1 compared with 4 or 5-treatment | further results
C=C[C@]1(C)CCC(C(C)(C)O)C(c2ccc(O)cc2)C1 (stereo in doubt) [cyclobakuchiol C] | 4.111 | 1.049 |  | MDCK Mx1 mRNA, individual replicates (virus +, listed as Cyclobakuchiol C): 0.595 and 6.605 and 6.273 and 8.3748 and 5.332 and 3.973 and 4.3945 and 0.841 and 0.6149; MDCK Mx1 mRNA, individual replicates (virus -, listed as Cyclobakuchiol C): 0.8391 and 0.8734 and 1.094 and 0.9606 and 1.231 and 1.129 and 1.257 and 1.188 and 0.8673
C=C[C@]1(C)CCC(C(C)(C)O)C(c2ccc(O)cc2)C1 (stereo in doubt) [cyclobakuchiol D] | 4.805 | 1.431 |  | MDCK Mx1 mRNA, individual replicates (virus +, listed as Cyclobakuchiol D): 0.823 and 8.732 and 6.853 and 11.4737 and 5.421 and 3.904 and 4.71 and 0.7737 and 0.5563; MDCK Mx1 mRNA, individual replicates (virus -, listed as Cyclobakuchiol D): 1.033 and 1.181 and 1.602 and 1.158 and 2.885 and 1.4873 and 1.3014 and 1.1198 and 1.11
C=C[C@]1(C)CCC(C(=C)C)C(c2ccc(O)cc2)C1 (stereo in doubt) [cyclobakuchiol B] | 2.462 | 0.5972 |  | MDCK Mx1 mRNA, individual replicates (virus +, listed as Cyclobakuchiol B): 0.2997 and 4.213 and 3.979 and 5.553 and 2.777 and 2.185 and 2.395 and 0.2998 and 0.4603; MDCK Mx1 mRNA, individual replicates (virus -, listed as Cyclobakuchiol B): 0.4518 and 0.5333 and 0.4418 and 0.5841 and 1.295 and 0.3791 and 0.8214 and 0.4024 and 0.4657
C=C[C@]1(C)CCC(C(=C)C)C(c2ccc(O)cc2)C1 (stereo in doubt) [cyclobakuchiol A] | 1.207 | 0.4356 | significantly reduced | MDCK Mx1 mRNA, individual replicates (virus +, listed as Cyclobakuchiol A): 0.2527 and 2.463 and 2.156 and 2.352 and 0.9916 and 0.8981 and 0.9472 and 0.4146 and 0.3917; MDCK Mx1 mRNA, individual replicates (virus -, listed as Cyclobakuchiol A): 0.3455 and 0.4424 and 0.367 and 0.3469 and 0.4512 and 0.4646 and 0.7257 and 0.3943 and 0.3827
C=C[C@@](C)(/C=C/c1ccc(O)cc1)CCC=C(C)C [(+)-(S)-bakuchiol, reference compound] | 1.1334 | 0.4419 | significantly reduced | virus-induced upregulation of Mx1 mRNA: significantly reduced; MDCK Mx1 mRNA, individual replicates (virus +): 0.2413 and 1.8944 and 2.953 and 2.445 and 0.9019 and 0.5846 and 0.6126 and 0.2532 and 0.315; MDCK Mx1 mRNA, individual replicates (virus -): 0.2755 and 0.4409 and 0.4188 and 0.4047 and 0.5819 and 0.4639 and 0.4949 and 0.4956 and 0.401
